Test results published in ChEMBL document CHEMBL1201861, “Genomics of Drug Sensitity in Cancer screening data, Wellcome Trust Sanger Institute”.

Columns and labels:
Experiment in all cases: cells
COR-L23 = format: functional, cell-based, Homo sapiens
Description: SANGER: Inhibition of human COR-L23 cell growth in a cell viability assay.

CaR-1 = format: functional, cell-based, Homo sapiens
Description: SANGER: Inhibition of human CaR-1 cell growth in a cell viability assay.

H9 = format: functional, cell-based, Homo sapiens
Description: SANGER: Inhibition of human H9 cell growth in a cell viability assay.

Kasumi 1 = format: functional, cell-based, Homo sapiens
Description: SANGER: Inhibition of human KASUMI-1 cell growth in a cell viability assay.

KP-4 = format: functional, cell-based, Homo sapiens
Description: SANGER: Inhibition of human KP-4 cell growth in a cell viability assay.

KU-19-19 = format: functional, cell-based, Homo sapiens
Description: SANGER: Inhibition of human KU-19-19 cell growth in a cell viability assay.

LU-135 = format: functional, cell-based, Homo sapiens
Description: SANGER: Inhibition of human LU-135 cell growth in a cell viability assay.

LU-99A = format: functional, cell-based, Homo sapiens
Description: SANGER: Inhibition of human LU-99A cell growth in a cell viability assay.

MCF7 = format: functional, cell-based, Homo sapiens
Description: SANGER: Inhibition of human MCF7 cell growth in a cell viability assay.

NB7 = format: functional, cell-based, Homo sapiens
Description: SANGER: Inhibition of human NB7 cell growth in a cell viability assay.

NCI-H1666 = format: functional, cell-based, Homo sapiens
Description: SANGER: Inhibition of human NCI-H1666 cell growth in a cell viability assay.

NCI-H1975 = format: functional, cell-based, Homo sapiens
Description: SANGER: Inhibition of human NCI-H1975 cell growth in a cell viability assay.

NCI-H2228 = format: functional, cell-based, Homo sapiens
Description: SANGER: Inhibition of human NCI-H2228 cell growth in a cell viability assay.

NCI-H2291 = format: functional, cell-based, Homo sapiens
Description: SANGER: Inhibition of human NCI-H2291 cell growth in a cell viability assay.

NCI-H630 = format: functional, cell-based, Homo sapiens
Description: SANGER: Inhibition of human NCI-H630 cell growth in a cell viability assay.

OAW-42 = format: functional, cell-based, Homo sapiens
Description: SANGER: Inhibition of human OAW-42 cell growth in a cell viability assay.

OE19 = format: functional, cell-based, Homo sapiens
Description: SANGER: Inhibition of human OE19 cell growth in a cell viability assay.

OVCAR-3 = format: functional, cell-based, Homo sapiens
Description: SANGER: Inhibition of human OVCAR-3 cell growth in a cell viability assay.

Panc1005 = format: functional, cell-based, Homo sapiens
Description: SANGER: Inhibition of human PANC-10-05 cell growth in a cell viability assay.

RH-18 = format: functional, cell-based, Homo sapiens
Description: SANGER: Inhibition of human RH-18 cell growth in a cell viability assay.

SW 1116 = format: functional, cell-based, Homo sapiens
Description: SANGER: Inhibition of human SW1116 cell growth in a cell viability assay.

SW48 = format: functional, cell-based, Homo sapiens
Description: SANGER: Inhibition of human SW48 cell growth in a cell viability assay.

23132-87 = format: functional, cell-based, Homo sapiens
Description: SANGER: Inhibition of human 23132-87 cell growth in a cell viability assay.

639-V = format: functional, cell-based, Homo sapiens
Description: SANGER: Inhibition of human 639-V cell growth in a cell viability assay.

8305C = format: functional, cell-based, Homo sapiens
Description: SANGER: Inhibition of human 8305C cell growth in a cell viability assay.

A-427 = format: functional, cell-based, Homo sapiens
Description: SANGER: Inhibition of human A427 cell growth in a cell viability assay.

CAL-120 = format: functional, cell-based, Homo sapiens
Description: SANGER: Inhibition of human CAL-120 cell growth in a cell viability assay.

TGBC11TKB = format: functional, cell-based, Homo sapiens
Description: SANGER: Inhibition of human TGBC11TKB cell growth in a cell viability assay.

TI-73 = format: functional, cell-based, Homo sapiens
Description: SANGER: Inhibition of human TI-73 cell growth in a cell viability assay.

TYK-nu = format: functional, cell-based, Homo sapiens
Description: SANGER: Inhibition of human TYK-nu cell growth in a cell viability assay.

U2OS = format: functional, cell-based, Homo sapiens, U-2-OS
Description: SANGER: Inhibition of human U-2-OS cell growth in a cell viability assay.

U-251 = format: functional, cell-based, Homo sapiens
Description: SANGER: Inhibition of human U251 cell growth in a cell viability assay.

YH-13 = format: functional, cell-based, Homo sapiens
Description: SANGER: Inhibition of human YH-13 cell growth in a cell viability assay.

## CISPLATIN
COR-L23; cor-l23
  IC50: 5.63 µM
CaR-1; car-1
  IC50: 755 µM
H9; h9
  IC50: 3.65 µM
Kasumi 1; kasumi 1
  IC50: 62.1 µM
KP-4; kp-4
  IC50: 11.7 µM
KU-19-19; ku-19-19
  IC50: 10.1 µM
LU-135; lu-135
  IC50: 33.8 µM
LU-99A; lu-99a
  IC50: 4.29 µM
MCF7; mcf7
  IC50: 15.2 µM
NB7; nb7
  IC50: 15.4 µM
NCI-H1666; nci-h1666
  IC50: 56.5 µM
NCI-H1975; nci-h1975
  IC50: 409 µM
NCI-H2228; nci-h2228
  IC50: 8.25 µM
NCI-H2291; nci-h2291
  IC50: 458 µM
NCI-H630; nci-h630
  IC50: 514 µM
OAW-42; oaw-42
  IC50: 8.63 µM
OE19; oe19
  IC50: 709 µM
OVCAR-3; ovcar-3
  IC50: 696 µM
Panc1005; panc1005
  IC50: 8.61 µM
RH-18; rh-18
  IC50: 353 µM
SW 1116; sw 1116
  IC50: 158 µM
SW48; sw48
  IC50: 9.22 µM
23132-87
  IC50: 60.3 µM
639-V; 639-v
  IC50: 5.89 µM
8305C; 8305c
  IC50: 61.6 µM
A-427; a-427
  IC50: 350 µM
CAL-120; cal-120
  IC50: 264 µM
TGBC11TKB; tgbc11tkb
  IC50: 29.4 µM
TI-73; ti-73
  IC50: 8.53 µM
TYK-nu; tyk-nu
  IC50: 15.8 µM
U2OS; u-2-os
  IC50: 13.4 µM
U-251; u-251
  IC50: 11.6 µM
YH-13; yh-13
  IC50: 12.1 µM

## CO[C@H]1C[C@@H]2CC[C@@H](C)[C@@](O)(O2)C(=O)C(=O)N2CCCC[C@H]2C(=O)O[C@H]([C@H](C)C[C@@H]2CC[C@@H](OC(=O)C(C)(CO)CO)[C@H](OC)C2)CC(=O)[C@H](C)/C=C(\C)[C@@H](O)[C@@H](OC)C(=O)[C@H](C)C[C@H](C)/C=C/C=C/C=C/1C [TEMSIROLIMUS]
COR-L23; Homo sapiens, COR-L23
  IC50: > 0.2 µM
CaR-1; Homo sapiens, CaR-1
  IC50: > 0.2 µM
H9; Homo sapiens, H9
  IC50: 0.00488 µM
Kasumi 1; Homo sapiens, Kasumi 1
  IC50: 0.0562 µM
KP-4; Homo sapiens, KP-4
  IC50: 0.116 µM
KU-19-19; Homo sapiens, KU-19-19
  IC50: > 0.2 µM
LU-135; Homo sapiens, LU-135
  IC50: > 0.2 µM
LU-99A; Homo sapiens, LU-99A
  IC50: 0.125 µM
MCF7; Homo sapiens, MCF7
  IC50: > 0.2 µM
NB7; Homo sapiens, NB7
  IC50: 0.0179 µM
NCI-H1666; Homo sapiens, NCI-H1666
  IC50: > 0.2 µM
NCI-H1975; Homo sapiens, NCI-H1975
  IC50: > 0.2 µM
NCI-H2228; Homo sapiens, NCI-H2228
  IC50: > 0.2 µM
NCI-H2291; Homo sapiens, NCI-H2291
  IC50: > 0.2 µM
NCI-H630; Homo sapiens, NCI-H630
  IC50: > 0.2 µM
OAW-42; Homo sapiens, OAW-42
  IC50: > 0.2 µM
OE19; Homo sapiens, OE19
  IC50: > 0.2 µM
OVCAR-3; Homo sapiens, OVCAR-3
  IC50: > 0.2 µM
Panc1005; Homo sapiens, Panc1005
  IC50: 0.155 µM
RH-18; Homo sapiens, Rh18
  IC50: > 0.2 µM
SW 1116; Homo sapiens, SW 1116
  IC50: > 0.2 µM
SW48; Homo sapiens, SW48
  IC50: > 0.2 µM
23132-87; Homo sapiens
  IC50: 0.0647 µM
639-V; Homo sapiens, 639-V
  IC50: > 0.2 µM
8305C; Homo sapiens, 8305C
  IC50: > 0.2 µM
A-427; Homo sapiens, A-427
  IC50: 0.183 µM
CAL-120; Homo sapiens, CAL-120
  IC50: > 0.2 µM
TGBC11TKB; Homo sapiens, TGBC11TKB
  IC50: > 0.2 µM
TI-73; Homo sapiens, TI-73
  IC50: > 0.2 µM
TYK-nu; Homo sapiens, TYK-nu
  IC50: 0.000778 µM
U2OS; Homo sapiens, U2OS
  IC50: 0.0702 µM
U-251; Homo sapiens, U-251
  IC50: > 0.2 µM
YH-13; Homo sapiens, YH-13
  IC50: 0.0411 µM

## Cc1cn(-c2cc(NC(=O)c3ccc(C)c(Nc4nccc(-c5cccnc5)n4)c3)cc(C(F)(F)F)c2)cn1 [NILOTINIB]
COR-L23; Homo sapiens, COR-L23
  IC50: > 2 µM
CaR-1; Homo sapiens, CaR-1
  IC50: > 2 µM
H9; Homo sapiens, H9
  IC50: > 2 µM
Kasumi 1; Homo sapiens, Kasumi 1
  IC50: 0.0241 µM
KP-4; Homo sapiens, KP-4
  IC50: > 2 µM
KU-19-19; Homo sapiens, KU-19-19
  IC50: > 2 µM
LU-135; Homo sapiens, LU-135
  IC50: > 2 µM
LU-99A; Homo sapiens, LU-99A
  IC50: > 2 µM
MCF7; Homo sapiens, MCF7
  IC50: > 2 µM
NB7; Homo sapiens, NB7
  IC50: 0.134 µM
NCI-H1666; Homo sapiens, NCI-H1666
  IC50: > 2 µM
NCI-H1975; Homo sapiens, NCI-H1975
  IC50: > 2 µM
NCI-H2228; Homo sapiens, NCI-H2228
  IC50: > 2 µM
NCI-H2291; Homo sapiens, NCI-H2291
  IC50: > 2 µM
NCI-H630; Homo sapiens, NCI-H630
  IC50: > 2 µM
OAW-42; Homo sapiens, OAW-42
  IC50: > 2 µM
OE19; Homo sapiens, OE19
  IC50: > 2 µM
OVCAR-3; Homo sapiens, OVCAR-3
  IC50: > 2 µM
Panc1005; Homo sapiens, Panc1005
  IC50: > 2 µM
RH-18; Homo sapiens, Rh18
  IC50: > 2 µM
SW 1116; Homo sapiens, SW 1116
  IC50: > 2 µM
SW48; Homo sapiens, SW48
  IC50: > 2 µM
23132-87; Homo sapiens
  IC50: > 2 µM
639-V; Homo sapiens, 639-V
  IC50: > 2 µM
8305C; Homo sapiens, 8305C
  IC50: > 2 µM
A-427; Homo sapiens, A-427
  IC50: > 2 µM
CAL-120; Homo sapiens, CAL-120
  IC50: > 2 µM
TGBC11TKB; Homo sapiens, TGBC11TKB
  IC50: > 2 µM
TI-73; Homo sapiens, TI-73
  IC50: > 2 µM
TYK-nu; Homo sapiens, TYK-nu
  IC50: > 2 µM
U2OS; Homo sapiens, U2OS
  IC50: > 2 µM
U-251; Homo sapiens, U-251
  IC50: > 2 µM
YH-13; Homo sapiens, YH-13
  IC50: > 2 µM

## Nc1cccc2c1CN(C1CCC(=O)NC1=O)C2=O (configuration not stated) [LENALIDOMIDE]
COR-L23; Homo sapiens, COR-L23
  IC50: > 5 µM
CaR-1; Homo sapiens, CaR-1
  IC50: > 5 µM
H9; Homo sapiens, H9
  IC50: > 5 µM
Kasumi 1; Homo sapiens, Kasumi 1
  IC50: > 5 µM
KP-4; Homo sapiens, KP-4
  IC50: > 5 µM
KU-19-19; Homo sapiens, KU-19-19
  IC50: > 5 µM
LU-135; Homo sapiens, LU-135
  IC50: > 5 µM
LU-99A; Homo sapiens, LU-99A
  IC50: > 5 µM
MCF7; Homo sapiens, MCF7
  IC50: > 5 µM
NB7; Homo sapiens, NB7
  IC50: > 5 µM
NCI-H1666; Homo sapiens, NCI-H1666
  IC50: > 5 µM
NCI-H1975; Homo sapiens, NCI-H1975
  IC50: > 5 µM
NCI-H2228; Homo sapiens, NCI-H2228
  IC50: > 5 µM
NCI-H2291; Homo sapiens, NCI-H2291
  IC50: > 5 µM
NCI-H630; Homo sapiens, NCI-H630
  IC50: > 5 µM
OAW-42; Homo sapiens, OAW-42
  IC50: > 5 µM
OE19; Homo sapiens, OE19
  IC50: > 5 µM
OVCAR-3; Homo sapiens, OVCAR-3
  IC50: > 5 µM
Panc1005; Homo sapiens, Panc1005
  IC50: > 5 µM
RH-18; Homo sapiens, Rh18
  IC50: > 5 µM
SW 1116; Homo sapiens, SW 1116
  IC50: > 5 µM
SW48; Homo sapiens, SW48
  IC50: > 5 µM
23132-87; Homo sapiens
  IC50: > 5 µM
639-V; Homo sapiens, 639-V
  IC50: > 5 µM
8305C; Homo sapiens, 8305C
  IC50: > 5 µM
A-427; Homo sapiens, A-427
  IC50: > 5 µM
CAL-120; Homo sapiens, CAL-120
  IC50: > 5 µM
TGBC11TKB; Homo sapiens, TGBC11TKB
  IC50: > 5 µM
TI-73; Homo sapiens, TI-73
  IC50: > 5 µM
TYK-nu; Homo sapiens, TYK-nu
  IC50: > 5 µM
U2OS; Homo sapiens, U2OS
  IC50: > 5 µM
U-251; Homo sapiens, U-251
  IC50: > 5 µM
YH-13; Homo sapiens, YH-13
  IC50: > 5 µM
